Experiments:
[1] = molecular target: T1, Human immunodeficiency virus type 1 integrase (Human immunodeficiency virus 1, UniProt Q7ZJM1); assay: Inhibition of Human immunodeficiency virus 1 integrase-mediated 3'-processing after 30 mins by polyacrylamide gel electrophoresis
[2] = molecular target: T1, Human immunodeficiency virus type 1 integrase; assay: Inhibition of Human immunodeficiency virus 1 integrase strand transfer activity after 30 mins by polyacrylamide gel electrophoresis
CCRF-CEM = assay: Cytotoxicity against human CEM cells after 6 days by trypan blue assay; conditions: 144 h
PBMC = assay: Cytotoxicity against human PBMC after 6 days by trypan blue assay; conditions: 144 h
[3] = test system: Human immunodeficiency virus 1; assay: Antiviral activity against Human immunodeficiency virus 1 LAI infected in human PBMC assessed as inhibition of viral replication after 5 days by reverse transcriptase assay; type: functional, organism-based; conditions: 120 h

T1 sequence (Q7ZJM1 whole entry): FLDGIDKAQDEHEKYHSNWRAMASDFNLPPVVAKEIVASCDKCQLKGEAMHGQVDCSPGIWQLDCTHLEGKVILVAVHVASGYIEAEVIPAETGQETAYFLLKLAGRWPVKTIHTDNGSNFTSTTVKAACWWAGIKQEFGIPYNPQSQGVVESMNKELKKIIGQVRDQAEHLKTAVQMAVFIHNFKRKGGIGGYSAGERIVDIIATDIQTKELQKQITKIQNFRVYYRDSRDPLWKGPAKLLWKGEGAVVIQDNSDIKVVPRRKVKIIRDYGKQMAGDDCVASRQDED

Structure (SMILES) | IC50 [1] [µM] | IC50 [2] [µM] | IC50 (CCRF-CEM) [µM] | IC50 (PBMC) [µM] | EC50 [3] [µM] | EC90 [3] [µM]
O=C(O)c1cc(F)cc(C(=O)/C=C/c2cc(Cl)cc(Cl)c2Cl)c1O | 33 | 15 | – | – | – | –
COc1ccc(/C=C/C(=O)c2cc(Br)cc(C(=O)O)c2O)c(Cl)c1OC | > 100 | 76 | – | – | – | –
O=C(O)c1cc(Br)cc(C(=O)/C=C/c2cc3c(cc2Cl)OCO3)c1O | 79 | 63 | – | – | – | –
O=C(O)c1cc(Cl)cc(C(=O)/C=C/c2cccc(Cl)c2Cl)c1O | 100 | 92 | – | – | – | –
N#Cc1cc(Br)cc(C(=O)/C=C/c2c(Cl)ccc(Cl)c2Cl)c1O | > 100 | 44 | – | – | – | –
O=C(O)c1cc(Br)cc(C(=O)/C=C/c2ccccc2Cl)c1O | 52 | 14 | – | – | – | –
O=C(O)c1cc(Br)cc(C(=O)/C=C/c2ccc3sccc3c2)c1O | 23 | 11 | 20.7 | 39.1 | 10.1 | 24.3
O=C(O)c1cc(Br)cc(C(=O)/C=C/c2ccccc2-c2ccco2)c1O | > 100 | 16 | – | – | – | –
O=C(O)c1cc(F)cc(C(=O)/C=C/c2ccc(Cl)cc2Cl)c1O | 52 | 24 | – | – | – | –
O=Cc1cc(Br)cc(C(=O)NCc2ccc(F)cc2)c1O | > 100 | 8 | 40.2 | 44 | 30.8 | 52.7
O=C(O)c1cc(Br)cc(C(=O)/C=C/c2ccccc2F)c1O | 74 | 32 | – | – | – | –
O=C(O)c1cc(Br)cc(C(=O)/C=C/c2cccc(OC(F)(F)F)c2)c1O | > 100 | 52 | – | – | – | –
COc1cc(F)c(/C=C/C(=O)c2cc(Br)cc(C(=O)O)c2O)cc1OC | > 100 | 76 | – | – | – | –
O=C(O)c1cc(Cl)cc(C(=O)/C=C/c2ccc(Cl)cc2)c1O | 85 | 53 | – | – | – | –
O=C(O)c1cc(Br)cc(C(=O)/C=C/c2ccc(Cl)cc2)c1O | 81 | 12 | – | – | – | –
O=C(O)c1cc(Br)cc(C(=O)/C=C/c2ccc(I)cc2)c1O | 69 | 35 | – | – | – | –
O=C(O)c1cc(Br)cc(C(=O)/C=C/c2cc(Cl)cc(Cl)c2Cl)c1O | 20 | 13 | – | – | – | –
O=C(O)c1cc(Cl)cc(C(=O)/C=C/c2c(Cl)ccc(Cl)c2Cl)c1O | 77 | 30 | – | – | – | –
O=C(O)c1cc(F)cc(C(=O)/C=C/c2c(Cl)ccc(Cl)c2Cl)c1O | 82 | 39 | – | – | – | –
O=C(O)c1cc(Cl)cc(C(=O)/C=C/c2ccc(Cl)cc2Cl)c1O | > 100 | > 100 | – | – | – | –
COc1ccc(/C=C/C(=O)c2cc(Br)cc(C(=O)O)c2O)cc1OC1CCCC1 | 100 | 55 | – | – | – | –
O=C(O)c1cc(Br)cc(C(=O)/C=C/c2ccc(Br)cc2)c1O | 11 | 5 | 27.5 | 24.4 | 8.7 | 21
COc1cccc(/C=C/C(=O)c2cc(Br)cc(C(=O)O)c2O)c1OC | 62 | 34 | – | – | – | –
Cc1cccc(C(=O)NCc2ccc(F)cc2)c1O | > 100 | > 100 | – | – | – | –
Cc1cc(C(=O)O)c(O)c(C(=O)/C=C/c2c(Cl)ccc(Cl)c2Cl)c1 | > 100 | 50 | – | – | – | –
O=C(O)c1cc(Br)cc(C(=O)/C=C/c2ccccc2OCc2ccccc2)c1O | 21 | 9 | – | – | – | –
O=C(O)c1cc(F)cc(C(=O)/C=C/c2cc(Cl)ccc2Cl)c1O | 50 | 29 | – | – | – | –
O=C(O)c1cc(Br)cc(C(=O)/C=C/c2cccc(F)c2)c1O | 71 | 59 | – | – | – | –

Structure (SMILES) | IC50 [1] [µM] | IC50 [2] [µM] | IC50 (CCRF-CEM) [µM] | IC50 (PBMC) [µM] | EC50 [3] [µM] | EC90 [3] [µM]
O=C(O)c1cc(Br)cc(C(=O)/C=C/c2cccc(Cl)c2)c1O | 45 | 9 | – | – | – | –
O=C(O)c1cc(Br)cc(C(=O)/C=C/c2c(Cl)cccc2Cl)c1O | 52 | 16 | – | – | – | –
O=C(O)c1cc(F)cc(C(=O)/C=C/c2ccc(Cl)cc2)c1O | 36 | 17 | – | – | – | –
O=C(O)c1cc(Br)cc(C(=O)/C=C/c2c(Cl)ccc(Cl)c2Cl)c1O | 23 | < 3.7 | 19 | 22.7 | 7.3 | 20.3
O=C(O)c1cc(Br)cc(C(=O)/C=C/c2cccc(Oc3ccc(Cl)cc3)c2)c1O | 25 | 18 | – | – | – | –
O=C(O)c1cc(Br)cc(C(=O)/C=C/c2ccc(Cl)c(Cl)c2)c1O | 27 | 14 | – | – | – | –
O=C(O)c1cc(Br)cc(C(=O)NCc2ccc(F)cc2)c1O | > 100 | 15 | – | – | – | –
O=C(O)c1cc(Br)cc(C(=O)/C=C/c2ccsc2)c1O | 30 | 18 | – | – | – | –
O=C(O)c1cc(F)cc(C(=O)/C=C/c2cccc(Cl)c2Cl)c1O | 55 | 30 | – | – | – | –
O=C(/C=C/c1cc(Br)cc([N+](=O)[O-])c1O)c1cc(Cl)cc(Cl)c1Cl | > 333 | – | – | – | – | –
Cc1cc(C)cc(/C=C/C(=O)c2cc(Br)cc(C(=O)O)c2O)c1 | > 100 | 58 | – | – | – | –
O=C(O)c1cc(Cl)cc(C(=O)/C=C/c2cc(Cl)ccc2Cl)c1O | 75 | 25 | – | – | – | –
O=C(NCc1ccc(F)cc1)c1cc(Br)ccc1O | > 100 | > 100 | – | – | – | –
COc1cccc2c(/C=C/C(=O)c3cc(Br)cc(C(=O)O)c3O)cccc12 | 54 | – | – | – | – | –
O=C(O)c1cc(Br)cc(C(=O)/C=C/c2ccc(Oc3ccc(Cl)cc3)cc2)c1O | 22 | 16 | – | – | – | –
O=C(O)c1cc(Br)cc(C(=O)/C=C/c2ccccc2)c1O | 75 | 25 | – | – | – | –
Cc1cn([C@H]2C[C@H](N=[N+]=[N-])[C@@H](CO)O2)c(=O)[nH]c1=O [ZIDOVUDINE] | – | – | 56.1 | > 100 | 0.0025 | 0.01
O=C(O)c1cc(Br)cc(C(=O)/C=C/c2cccc([N+](=O)[O-])c2)c1O | 49 | 32 | – | – | – | –
O=C(O)c1cc(Br)cc(C(=O)/C=C/c2cc(Cl)ccc2Cl)c1O | 47 | 18 | – | – | – | –
COc1ccc(/C=C/C(=O)c2cc(Br)cc(C(=O)O)c2O)c(OC)c1OC | 85 | 51 | – | – | – | –
O=C(O)c1cc(Cl)cc(C(=O)/C=C/c2cc(Cl)cc(Cl)c2Cl)c1O | 55 | 17 | – | – | – | –
O=C(O)c1cc(Br)cc(C(=O)/C=C/c2cccc(Br)c2)c1O | 19 | 18 | – | – | – | –
O=C(O)c1cc(F)cc(C(=O)CCc2cc(Cl)ccc2Cl)c1O | > 100 | 57 | – | – | – | –
O=C(O)c1cc(Br)cc(C(=O)/C=C/c2cccc(Cl)c2Cl)c1O | 58 | 19 | – | – | – | –
O=C(O)c1cc(Cl)cc(C(=O)/C=C/c2ccc(Cl)c(Cl)c2)c1O | 87 | 41 | – | – | – | –
CCOc1ccc2ccccc2c1/C=C/C(=O)c1cc(Br)cc(C(=O)O)c1O | 92 | 46 | – | – | – | –
O=C(O)c1cc(Br)cc(C(=O)/C=C/c2ccc(Cl)cc2Cl)c1O | 28 | 7 | 23.8 | 22.1 | 13.9 | 26
